Measurements taken from patent US6821980B1, “Substituted 5-benzyl-2,4-diaminopyrimidines” (Basilea Pharmaceutica AG, priority 1999, dated 2004).
≈ marks a conversion by molar mass, not a printed value.

How the values were obtained:
[1] = target: purified DHFR of strain 157/4696 of Staphylococcus aureus (Staphylococcus aureus, UniProt P13955); assay: biochemical
[2] = tested on: Streptococcus pneumoniae 1/1; assay: MIC against Streptococcus pneumoniae 1/1; format: cell-based; conditions: Table 2; Streptococcus pneumoniae 1/1, trimethoprim- and penicillin-resistant, serotype 6; clinical isolate; read-out: MIC Sp1/1
[3] = target: T1, purified DHFR of strain Sp1/1 of Streptococcus pneumoniae (Streptococcus pneumoniae serotype 4, UniProt Q54801); format: biochemical; conditions: Table 2; IC50 against purified DHFR of strain Sp1/1
T1 sequence (Q54801 1-168 I100L): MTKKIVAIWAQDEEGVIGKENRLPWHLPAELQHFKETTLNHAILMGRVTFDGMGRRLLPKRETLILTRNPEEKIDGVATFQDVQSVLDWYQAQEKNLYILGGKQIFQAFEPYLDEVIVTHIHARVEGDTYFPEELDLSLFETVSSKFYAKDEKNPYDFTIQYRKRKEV

[4] = tested on: Staphylococcus aureus 101; assay: MIC against Staphylococcus aureus 101; format: cell-based; conditions: Table 2; Staphylococcus aureus 101, MRSA- and trimethoprim-resistant; clinical isolate; read-out: MIC Sa101

Chain of purified DHFR of strain 157/4696 of Staphylococcus aureus (P13955 whole entry): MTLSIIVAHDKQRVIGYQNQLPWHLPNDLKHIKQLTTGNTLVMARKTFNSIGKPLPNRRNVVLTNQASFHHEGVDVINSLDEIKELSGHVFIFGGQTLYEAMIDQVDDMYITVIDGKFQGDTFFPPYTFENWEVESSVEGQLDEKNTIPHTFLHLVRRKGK

SMILES | IC50 [1] [nM] | MIC [2] [µg/mL] | IC50 [3] [nM] | MIC [4] [µg/mL]
CCOc1cc(Cc2cnc(N)nc2N)cc(OCC2CC2)c1-c1ccc(OCC#N)cc1 [Example 59-, [2′-Cycloproplmethoxy-4′-(2,4-diamino-pyrimidin-5-ylmethyl)-6′-ethoxy-biphenyl-4-yloxy]-acetonitrile] | 1800 | 2 (≈ 4.49 µM) | 18 | 8 (≈ 18 µM)
CCOc1cc(Cc2cnc(N)nc2N)cc(OS(=O)(=O)N(C)C)c1-c1ccc(S(C)(=O)=O)cc1 [Example 60-, Dimethylsulphamic acid 4-(2,4-diamino-pyrimidin-5-ylmethyl)-6-ethoxy-4′-methanesulphonyl-biphenyl-2-yl ester] | 280 | 8 (≈ 15.3 µM) | 88 | 4 (≈ 7.67 µM)
CCOc1cc(Cc2cnc(N)nc2N)cc(OS(=O)(=O)CC(C)C)c1-c1ccc(OCCO)cc1 [Example 61-a, 2-Methyl-propane-1-sulphonic acid 4-(2,4-diamino-pyrimidin-5-ylmethyl)-6-ethoxy-4′-(2-hydroxy-ethoxy)-biphenyl-2-yl ester] | 550 | 0.5 (≈ 0.968 µM) | 1.8 | 2 (≈ 3.87 µM)
CCOc1cc(Cc2cnc(N)nc2N)cc(OS(=O)(=O)C(C)CC)c1-c1ccc(OCCO)cc1 (stereo not shown) [Example 61-b] | 210 | 1 (≈ 1.94 µM) | 11 | 2 (≈ 3.87 µM)
CCOc1cc(Cc2cnc(N)nc2N)cc(OS(=O)(=O)N(C)C)c1-c1ccc(OC(C)=O)cc1 [Example 62-, 4′-(2,4-Diamino-pyrimidin-5-ylmethyl)-2′-dimethylsulphamoylxy-6′-ethoxy-biphenyl-4-yl acetate] | 330 | 2 | 7.9 | 2
CCOc1cc(Cc2cnc(N)nc2N)cc(OS(=O)(=O)CC(C)C)c1-c1ccc(OCCOC)cc1 [Example 63-, 2-Methyl-propane-1-sulphonic acid 4-(2,4-diamino-pyrimidin-5-ylmethyA)-6-ethoxy-4′-(2-methox-ethoxy)-biphenyl-2-yl ester] | 380 | 1 (≈ 1.88 µM) | 1.8 | 4 (≈ 7.54 µM)
CCOc1cc(Cc2cnc(N)nc2N)cc(OS(C)(=O)=O)c1-c1ccc(CN2CCOCC2)c(F)c1 [Example 64-a, Methanesulphonic acid 4-(2,4-diamino-pyrimidin-5-ylmethyl)-6-ethoxy-3′-fluoro-4′-morpholin-4-ylmethyl-biphenyl-2-yl ester] | 1500 | 4 (≈ 7.52 µM) | 52 | 8 (≈ 15 µM)
CCOc1cc(Cc2cnc(N)nc2N)cc(OS(=O)(=O)N(C)C)c1-c1ccc(CN2CCOCC2)c(F)c1 [Example 64-b, Dimethylsulphamic acid 4-(2,4-diamino-pyrimidin-5-ylmethUl)-6-ethoxy-3′-fluoro-4′-morpholin-4-ylmethyl-biphenyl-2-yl ester] | 300 | 2 (≈ 3.57 µM) | 27 | 2 (≈ 3.57 µM)
CCOc1cc(Cc2cnc(N)nc2N)cc(OS(=O)(=O)N(C)C)c1-c1ccc(CN2CCOCC2)cc1 [Example 65-, Dimethylsulphamic acid 4-(2,4-diamino-pyrimidin-5-ylmethyl)-6-ethoxy-4′-morpholin-4-ylmethyl-biphenyl-2-yl ester] | 160 | 2 (≈ 3.69 µM) | 24 | 2 (≈ 3.69 µM)
CCOc1cc(Cc2cnc(N)nc2N)cc(OS(=O)(=O)N(C)C)c1-c1ccc(CN(C)CCF)cc1 [Example 66-, Dimethylsulphamic acid 4-(2,4-diamino-pyrimidin-5-ylmethyl)-6-ethoxy-4′-{[N-(2-fluoro-ethyl)-N-methyl-amino]-methyl}-binhenyl-2-yl ester] | 170 | 4 (≈ 7.51 µM) | 52 | 2 (≈ 3.75 µM)
